Assay results taken from patent US20060063759A1, “Tricyclic steroid hormone nuclear receptor modulators” (priority 2002, published 2006).
pKi: −log10 of the molar value.

Experiments:
[1] = target: T1, glucocorticoid receptor (Homo sapiens, UniProt P04150); experiment: Glucocorticoid Receptor Binding Assay ([3H]-dexamethasone, A549 cell extract); conditions: [3H]-dexamethasone binding, read-out: GR Ki
T1 construct: containing 50-200 ug of A549 cell extract and 1.86 nM [^3H]-dexamethasone; host or cells: A549 human lung epithelial cells (sonicated cell extract)
T1 sequence (P04150 1-777): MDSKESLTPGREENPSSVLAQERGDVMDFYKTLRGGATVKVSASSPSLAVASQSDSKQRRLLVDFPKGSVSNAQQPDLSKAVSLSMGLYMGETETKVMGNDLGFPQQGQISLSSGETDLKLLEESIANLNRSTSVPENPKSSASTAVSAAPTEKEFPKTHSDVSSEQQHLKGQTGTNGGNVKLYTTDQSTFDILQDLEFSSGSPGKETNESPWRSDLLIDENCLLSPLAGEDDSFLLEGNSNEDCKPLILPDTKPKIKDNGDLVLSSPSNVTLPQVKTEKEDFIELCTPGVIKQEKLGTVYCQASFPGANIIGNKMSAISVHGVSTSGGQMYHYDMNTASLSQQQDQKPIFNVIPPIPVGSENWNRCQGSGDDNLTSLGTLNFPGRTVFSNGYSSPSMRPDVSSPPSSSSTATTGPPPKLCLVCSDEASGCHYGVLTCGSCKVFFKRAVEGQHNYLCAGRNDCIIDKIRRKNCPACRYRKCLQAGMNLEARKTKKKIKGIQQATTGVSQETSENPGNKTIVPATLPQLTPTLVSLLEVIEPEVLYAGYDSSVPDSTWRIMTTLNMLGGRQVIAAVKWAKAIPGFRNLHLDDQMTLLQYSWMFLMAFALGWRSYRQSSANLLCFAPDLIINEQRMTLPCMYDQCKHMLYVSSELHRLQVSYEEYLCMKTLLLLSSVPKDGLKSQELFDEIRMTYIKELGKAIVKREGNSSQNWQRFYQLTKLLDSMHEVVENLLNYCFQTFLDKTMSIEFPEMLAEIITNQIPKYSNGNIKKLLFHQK
Procedure, shortened: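 Displacement of [3H]-dexamethasone (1.86 nM) from glucocorticoid receptor in sonicated A549 lung epithelial cell extracts, 16 h at 4 °C, pH 7.2 molybdate-containing buffer. Bound radioactivity was scintillation-counted after charcoal/dextran stripping of free ligand.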

[2] = target: T2, human MR (Homo sapiens, UniProt P08235); experiment: Mineralocorticoid Receptor Binding Assay ([3H]-aldosterone); conditions: [3H]-aldosterone binding, human MR expressed in Sf9 cells; read-out: MR Ki
T2 construct: The full length human MR gene is cloned from a human kidney or human brain cDNA library; His tag from the pAcHLT vector (own knowledge); made in house; host or cells: Sf9 insect cells (baculovirus, pAcHLT transfer vector)
T2 sequence (P08235 1-984): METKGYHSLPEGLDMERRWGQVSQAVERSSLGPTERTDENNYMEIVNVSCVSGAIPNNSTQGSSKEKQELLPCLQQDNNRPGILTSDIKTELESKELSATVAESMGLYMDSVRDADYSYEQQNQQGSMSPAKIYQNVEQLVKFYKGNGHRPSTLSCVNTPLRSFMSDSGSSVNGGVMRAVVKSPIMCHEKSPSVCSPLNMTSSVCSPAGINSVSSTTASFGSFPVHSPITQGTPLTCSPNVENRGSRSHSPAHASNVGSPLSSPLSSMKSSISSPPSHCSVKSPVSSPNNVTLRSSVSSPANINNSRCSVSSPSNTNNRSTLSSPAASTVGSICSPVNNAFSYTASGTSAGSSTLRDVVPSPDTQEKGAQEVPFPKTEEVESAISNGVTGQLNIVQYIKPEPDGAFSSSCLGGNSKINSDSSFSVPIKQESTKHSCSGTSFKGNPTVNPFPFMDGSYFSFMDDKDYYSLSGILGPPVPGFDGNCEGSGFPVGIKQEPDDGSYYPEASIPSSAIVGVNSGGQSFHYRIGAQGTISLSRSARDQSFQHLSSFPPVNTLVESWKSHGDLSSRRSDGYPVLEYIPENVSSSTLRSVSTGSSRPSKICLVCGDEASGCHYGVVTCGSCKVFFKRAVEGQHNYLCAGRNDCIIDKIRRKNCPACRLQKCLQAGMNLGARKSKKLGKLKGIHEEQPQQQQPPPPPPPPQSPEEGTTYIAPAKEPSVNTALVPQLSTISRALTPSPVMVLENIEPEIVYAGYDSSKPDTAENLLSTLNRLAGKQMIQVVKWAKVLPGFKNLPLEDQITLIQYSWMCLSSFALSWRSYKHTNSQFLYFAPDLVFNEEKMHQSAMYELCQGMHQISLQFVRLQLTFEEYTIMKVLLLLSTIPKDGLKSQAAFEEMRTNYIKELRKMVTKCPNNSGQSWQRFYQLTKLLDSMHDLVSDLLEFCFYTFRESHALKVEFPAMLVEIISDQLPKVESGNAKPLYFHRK
Procedure, shortened: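 Receptor source: freeze-thaw lysate of baculovirus-infected Sf9 cells carrying full-length human MR, 20-25 μg protein. Incubation ~16 h at 4 °C with shaking, pH 7.5 buffer containing 30 mM sodium molybdate and 10% glycerol.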

Structure (SMILES)	pKi [1]	pKi [2]
O=c1[nH]c2ccc(/C=C3/c4ccc(F)cc4CCc4nc(Cl)sc43)cc2[nH]1 [Example 549]	> 5.00	> 6.30
CS(=O)(=O)Nc1cccc(/C=C2\c3scnc3CCc3cccc(Cl)c32)c1 [Example 554]	> 6.00	> 6.30
Nc1nc2c(s1)C(=Cc1cccc(O)c1)c1ccccc1CC2 [Example 560]	> 6.00	> 6.30
O=c1[nH]c2ccc(/C=C3\c4ccccc4CCc4ncsc43)cc2[nH]1 [Example 561]	> 6.00	> 6.30
O=c1[nH]c2ccc(/C=C3\c4ccc(F)cc4CCc4ncsc43)cc2[nH]1 [Example 565]	> 5.00	> 6.30
O=c1[nH]c2ccc(/C=C3/c4ccc(F)cc4CCc4ncsc43)cc2[nH]1 [Example 566]	> 5.00	> 6.30
CS(=O)(=O)Nc1cccc(/C=C2\c3cccnc3CCc3c(Cl)cccc32)c1 [Example 567]	> 5.00	> 6.30
CS(=O)(=O)Nc1cccc(/C=C2/c3ccc(Cl)cc3CCc3ncccc32)c1 [Example 569]	> 5.00	> 6.30
CS(=O)(=O)Nc1cccc(/C=C2\c3ccc(Cl)cc3CCc3ncccc32)c1 [Example 570]	> 6.00	> 6.30
Fc1cccc2c1CCc1ncccc1C2=Cc1cccc(Cl)c1 [Example 575]	> 6.30	> 6.30
CS(=O)(=O)Nc1cccc(/C=C2/c3cccnc3CCc3c(F)cccc32)c1 [Example 576]	> 5.00	> 6.30
Fc1ccc2c(c1)CCc1ncccc1/C2=C/c1ccccc1F [Example 578]	> 5.00	> 6.30
Fc1ccc(/C=C2\c3ccc(F)cc3CCc3ncccc32)cc1 [Example 580]	> 5.00	> 6.30
Fc1ccc(/C=C2/c3ccc(F)cc3CCc3ncccc32)cc1 [Example 581]	> 5.00	> 6.30
Fc1ccc2c(c1)CCc1ncccc1/C2=C\c1ccccc1F [Example 582]	> 5.00	> 6.30
Fc1cccc(/C=C2/c3ccc(F)cc3CCc3ncccc32)c1 [Example 583]	> 5.00	> 6.30
COC(=O)c1ccc(/C=C2\c3ccc(F)cc3CCc3ncccc32)cc1 [Example 584]	> 5.00	> 6.00
COC(=O)c1cccc(/C=C2\c3ccc(F)cc3CCc3ncccc32)c1 [Example 585]	> 5.00	> 6.30
COC(=O)c1cccc(/C=C2/c3ccc(F)cc3CCc3ncccc32)c1 [Example 586]	> 5.00	> 6.30
COC(=O)c1ccc(/C=C2/c3ccc(F)cc3CCc3ncccc32)cc1 [Example 587]	> 5.00	> 6.30
Fc1ccc2c(c1)CCc1ncccc1/C2=C/c1cccc(C(F)(F)F)c1 [Example 590]	> 6.00	> 6.30
N#Cc1ccc2c(n1)CCc1cc(F)ccc1/C2=C\c1ccc2[nH]c(=O)[nH]c2c1 [Example 591]	> 5.00	> 6.30
CC(C)n1c(=O)[nH]c2cc(/C=C3\c4ccc(F)cc4CCc4ncccc43)ccc21 [Example 592]	> 5.00	> 6.30
O=c1[nH]c2cc(/C=C3\c4ccc(F)cc4CCc4ncccc43)ccc2n1C1CC1 [Example 593]	> 5.00	> 6.30
O=c1[nH]c2cc(/C=C3\c4ccc(F)cc4CCc4ncccc43)ccc2n1CCN1CCOCC1 [Example 596]	> 5.00	> 6.30
CS(=O)(=O)Nc1cccc(C=C2c3ccccc3C3CC3c3ccccc32)c1 (stereo not drawn) [Example 602]	> 6.30	> 6.30
Nc1cccc(C=C2c3ccccc3[C@H]3C[C@H]3c3ccccc32)c1 [Example 604]	> 6.00	> 6.30
O=c1[nH]c2cc(C=C3c4ccccc4C4CC4c4ccccc43)ccc2s1 (stereo not drawn) [Example 605]	> 6.30	> 6.30

The next lines start with the values.

pKi [1]	pKi [2]	Structure (SMILES)
> 6.30	> 6.30	CS(=O)(=O)Nc1cccc(/C=C2\c3ccc(F)cc3CCc3nc(Cl)sc32)c1 [Example 550]
> 6.30	> 6.30	CS(=O)(=O)Nc1cccc(/C=C2/c3ccc(F)cc3CCc3nc(Cl)sc32)c1 [Example 551]
> 6.30	> 6.30	CS(=O)(=O)Nc1cccc(/C=C2/c3ccc(Cl)cc3CCc3ncsc32)c1 [Example 552]
> 6.30	> 6.30	CS(=O)(=O)Nc1cccc(/C=C2\c3ccc(Cl)cc3CCc3ncsc32)c1 [Example 553]
> 6.30	> 6.30	CS(=O)(=O)Nc1cccc(/C=C2/c3ccccc3CCc3ncsc32)c1 [Example 555]
> 6.30	> 6.30	CS(=O)(=O)Nc1cccc(/C=C2\c3ccccc3CCc3ncsc32)c1 [Example 556]
> 6.30	> 6.30	CS(=O)(=O)Nc1cccc(/C=C2/c3cccnc3CCc3cccc(F)c32)c1 [Example 557]
> 6.30	> 6.30	CS(=O)(=O)Nc1cccc(/C=C2\c3ccccc3CCc3nc(N)sc32)c1 [Example 559]
> 6.30	> 6.30	O=c1[nH]c2cc(/C=C3\c4ccccc4CCc4ncsc43)ccc2o1 [Example 562]
> 6.30	> 6.30	CS(=O)(=O)Nc1cccc(/C=C2/c3ccc(F)cc3CCc3ncsc32)c1 [Example 563]
> 6.30	> 6.30	CS(=O)(=O)Nc1cccc(/C=C2\c3ccc(F)cc3CCc3ncsc32)c1 [Example 564]
> 6.30	> 6.30	CS(=O)(=O)Nc1cccc(/C=C2/c3cccnc3CCc3c(Cl)cccc32)c1 [Example 573]
> 6.30	> 6.30	CS(=O)(=O)Nc1cccc(/C=C2\c3cccnc3CCc3c(F)cccc32)c1 [Example 574]
> 6.30	> 6.30	Fc1cccc(/C=C2\c3ccc(F)cc3CCc3ncccc32)c1 [Example 579]
> 6.30	> 6.30	COC(=O)c1ccccc1/C=C1\c2ccc(F)cc2CCc2ncccc21 [Example 588]
> 6.30	> 6.30	COC(=O)c1ccccc1/C=C1/c2ccc(F)cc2CCc2ncccc21 [Example 589]
> 6.30	> 6.30	CS(=O)(=O)Nc1cc(F)cc(/C=C2/c3ccc(F)cc3CCc3nc(C(F)F)ccc32)c1 [Example 594]
> 6.30	> 6.30	CS(=O)(=O)Nc1cc(F)cc(/C=C2\c3ccc(F)cc3CCc3nc(C(F)F)ccc32)c1 [Example 595]
> 6.30	> 6.30	CS(=O)(=O)Nc1cc(F)cc(/C=C2\c3ccc(F)cc3CCc3nc(CF)ccc32)c1 [Example 597]
> 6.30	> 6.30	CS(=O)(=O)Nc1cc(F)cc(/C=C2/c3ccc(F)cc3CCc3nc(CF)ccc32)c1 [Example 598]
